Where “and” joins values, the source holds several entries; their conditions need not be identical. Identical values can stand only once.
What was measured:
[1] = refractive index (Na D-line) (dimensionless); details: 101.33 kPa, Liquid
[2] = 101 kPa, Liquid
[3] = xn = mol fraction of the nth substance listed; details: 101 kPa, Liquid
[4] = refractive index (Na D-line) (dimensionless); xn = mol fraction of the nth substance listed; details: 101 kPa, Liquid

Clc1ccccc1Cl [1,2-dichlorobenzene]
Details | mass density, 298.15 K [kg/m3] | mass density, 303.15 K [kg/m3] | mass density, 308.15 K [kg/m3] | refractive index, 298.15 K | refractive index, 303.15 K | refractive index, 308.15 K | speed of sound, 298.15 K [m/s] | viscosity, 298.15 K [mPa·s] | viscosity, 303.15 K [mPa·s] | viscosity, 308.15 K [mPa·s]
[1] | – | – | – | 1.5499 | 1.5476 | 1.545 | – | – | – | –
[2] | 1300.9 | 1295.4 | 1289.7 | – | – | – | 1280 | 1.324 | 1.214 | 1.105

C1COCCO1 [1,4-dioxane]
Details | mass density, 298.15 K [kg/m3] | mass density, 303.15 K [kg/m3] | mass density, 308.15 K [kg/m3] | refractive index, 298.15 K | refractive index, 303.15 K | refractive index, 308.15 K | speed of sound, 298.15 K [m/s] | viscosity, 298.15 K | viscosity, 303.15 K | viscosity, 308.15 K [mPa·s]
[1] | – | – | – | 1.4203 | 1.4164 | 1.4145 | – | – | – | –
[2] | 1028.6 | 1022.9 | 1017.2 | – | – | – | 1345 | 1.196 mPa·s and 1.195 mPa·s | 1.102 mPa·s and 1.095 mPa·s | 1.008

OCCCl [1-chloro-2-hydroxyethane]
Details | mass density, 298.15 K [kg/m3] | mass density, 303.15 K [kg/m3] | mass density, 308.15 K [kg/m3] | refractive index, 298.15 K | refractive index, 303.15 K | refractive index, 308.15 K | speed of sound, 298.15 K [m/s] | viscosity, 298.15 K [mPa·s] | viscosity, 303.15 K [mPa·s] | viscosity, 308.15 K [mPa·s]
[1] | – | – | – | 1.4411 | 1.438 | 1.4326 | – | – | – | –
[2] | 1200.9 | 1192.5 | 1187.1 | – | – | – | 1358 | 3.104 | 2.669 | 2.347

CC(=O)N(C)C [N,N-dimethylethanamide]
Details | mass density, 298.15 K [kg/m3] | mass density, 303.15 K [kg/m3] | mass density, 308.15 K [kg/m3] | refractive index, 298.15 K | refractive index, 303.15 K | refractive index, 308.15 K | speed of sound, 298.15 K [m/s] | viscosity, 298.15 K [mPa·s] | viscosity, 303.15 K [mPa·s] | viscosity, 308.15 K [mPa·s]
[1] | – | – | – | 1.4363 | 1.4342 | 1.432 | – | – | – | –
[2] | 946.8 | 942.1 | 937.5 | – | – | – | 1458 | 1.261 | 1.154 | 1.047

CCCCO [butan-1-ol]
Details | mass density, 298.15 K [kg/m3] | mass density, 303.15 K [kg/m3] | mass density, 308.15 K [kg/m3] | refractive index, 298.15 K | refractive index, 303.15 K | refractive index, 308.15 K | speed of sound, 298.15 K [m/s] | viscosity, 298.15 K [mPa·s] | viscosity, 303.15 K [mPa·s] | viscosity, 308.15 K [mPa·s]
[1] | – | – | – | 1.3983 | 1.3955 | 1.3937 | – | – | – | –
[2] | 805.8 | 802 | 798 | – | – | – | 1237 | 2.564 | 2.245 | 1.981

CCOC(=O)CC(=O)OCC [diethyl 1,3-propanedioate]
Details | mass density, 298.15 K [kg/m3] | mass density, 303.15 K [kg/m3] | mass density, 308.15 K [kg/m3] | refractive index, 298.15 K | refractive index, 303.15 K | refractive index, 308.15 K | speed of sound, 298.15 K [m/s] | viscosity, 298.15 K [mPa·s] | viscosity, 303.15 K [mPa·s] | viscosity, 308.15 K [mPa·s]
[1] | – | – | – | 1.4132 | 1.4108 | 1.4085 | – | – | – | –
[2] | 1049.6 | 1044.2 | 1038.8 | – | – | – | 1304 | 1.941 | 1.755 | 1.602

CCOC(C)=O [ethyl acetate]
Details | mass density, 298.15 K [kg/m3] | mass density, 303.15 K [kg/m3] | mass density, 308.15 K [kg/m3] | refractive index, 298.15 K | refractive index, 303.15 K | refractive index, 308.15 K | speed of sound, 298.15 K [m/s] | viscosity, 298.15 K [mPa·s] | viscosity, 303.15 K [mPa·s] | viscosity, 308.15 K [mPa·s]
[1] | – | – | – | 1.3713 | 1.3673 | 1.3631 | – | – | – | –
[2] | 894.2 | 887.9 | 881.6 | – | – | – | 1155 | 0.438 | 0.414 | 0.392

ClC=C(Cl)Cl [trichloroethene]
Details | mass density, 298.15 K [kg/m3] | mass density, 303.15 K [kg/m3] | mass density, 308.15 K [kg/m3] | refractive index, 298.15 K | refractive index, 303.15 K | refractive index, 308.15 K | speed of sound, 298.15 K [m/s] | viscosity, 298.15 K [mPa·s] | viscosity, 303.15 K [mPa·s] | viscosity, 308.15 K [mPa·s]
[1] | – | – | – | 1.476 | 1.4729 | 1.4698 | – | – | – | –
[2] | 1455.4 | 1447 | 1438.5 | – | – | – | 1027 | 0.573 | 0.547 | 0.521

ClC=C(Cl)Cl [trichloroethene] + C1COCCO1
Details | mass density, 298.15 K [kg/m3] | mass density, 303.15 K [kg/m3] | mass density, 308.15 K [kg/m3] | refractive index, 298.15 K | refractive index, 303.15 K | refractive index, 308.15 K | speed of sound, 298.15 K [m/s] | viscosity, 298.15 K [mPa·s] | viscosity, 303.15 K [mPa·s] | viscosity, 308.15 K [mPa·s]
[3], x2 = 0 | 1455.4 | 1447 | 1438.5 | – | – | – | 1027 | 0.573 | 0.547 | 0.521
[3], x2 = 0.1006 | 1412.7 | 1404.6 | 1396.4 | – | – | – | 1059 | 0.635 | 0.602 | 0.569
[3], x2 = 0.201 | 1370.1 | 1362.2 | 1354.2 | – | – | – | 1091 | 0.697 | 0.658 | 0.618
[3], x2 = 0.2983 | 1327.9 | 1320.3 | 1312.8 | – | – | – | 1122 | 0.758 | 0.712 | 0.665
[3], x2 = 0.3995 | 1284.4 | 1277.2 | 1270 | – | – | – | 1152 | 0.821 | 0.768 | 0.714
[3], x2 = 0.507 | 1238.6 | 1231.5 | 1224.5 | – | – | – | 1187 | 0.888 | 0.827 | 0.767
[3], x2 = 0.5993 | 1199.3 | 1192.5 | 1185.7 | – | – | – | 1215 | 0.945 | 0.878 | 0.812
[3], x2 = 0.6969 | 1158.5 | 1152.1 | 1145.6 | – | – | – | 1246 | 1.006 | 0.933 | 0.859
[3], x2 = 0.802 | 1114 | 1107.7 | 1101.5 | – | – | – | 1276 | 1.072 | 0.991 | 0.911
[3], x2 = 0.9003 | 1072.1 | 1066.2 | 1060 | – | – | – | 1307 | 1.133 | 1.046 | 0.959
[4], x2 = 0 | – | – | – | 1.476 | 1.4729 | 1.4698 | – | – | – | –
[4], x2 = 0.1006 | – | – | – | 1.4704 | 1.4673 | 1.4643 | – | – | – | –
[4], x2 = 0.201 | – | – | – | 1.4648 | 1.4618 | 1.4587 | – | – | – | –
[4], x2 = 0.2983 | – | – | – | 1.4592 | 1.4562 | 1.4532 | – | – | – | –
[4], x2 = 0.3995 | – | – | – | 1.4536 | 1.4507 | 1.4477 | – | – | – | –
[4], x2 = 0.507 | – | – | – | 1.4476 | 1.4446 | 1.4417 | – | – | – | –
[4], x2 = 0.5993 | – | – | – | 1.4426 | 1.4396 | 1.4366 | – | – | – | –
[4], x2 = 0.6969 | – | – | – | 1.4373 | 1.4344 | 1.4315 | – | – | – | –
[4], x2 = 0.802 | – | – | – | 1.4314 | 1.4285 | 1.4256 | – | – | – | –
[4], x2 = 0.9003 | – | – | – | 1.426 | 1.4231 | 1.4202 | – | – | – | –

Reference: the NIST ThermoML archive (doi:10.1021/je049609w)
